Results as given in patent US6767916B2 (Indena S.p.A., priority 1999, dated 2004).

How the values were obtained:
[1] = cytotoxicity of compounds tested alone against drug-resistant cancer cells; type: cell-based; conditions: human, MDA-435/LCC-MDR drug-resistant cancer cells, read-out: cytotoxicity IC50, compound alone
Procedure: Compounds VIB 106 and VIB 122 were tested for their cytotoxicity against drug-resistant cancer cells, both alone, and in combination with paclitaxel.
The treatment consisted of concurrent exposure of MDA-435/LCC-MDR cells to paclitaxel in the presence or absence of the compounds reversing agent (1 μM) for 72 h in vitro. Assessment of cytotoxicity, i.e. cell growth inhibition, was determined according to the methods of Skehan, et al. as discussed in J. Nat. Cancer Inst., 82, 1107,1990. Briefly, cells were plated between 400 and 1200 cells/well in 96 well plates and incubated at 37° C. for 15-18 h prior to drug addiction to allow attachment of cells. Compounds were solubilized in 100% DMSO and further diluted in RPMI-1640 containing 10 mM HEPES. After a 72 h incubation, 100 μl of ice-cold 50% TCA was added to each well and incubated for 1 h at 4° C. Plates were then washed 5 times with tap water to remove TCA, low-molecular weight metabolites and serum proteins. Sulforhodamine B (SRB) (0.4%, 50 μl) was added to each well. Following a five minute incubation at room temperature, plates were rinsed 5 times with 0.1% acetic acid and air dried. Bound dye was solubilized with 10 mM Tris Base (pH 10.5) for 5 min on a gyratory shaker. Optical density was measured at 570 nm. [drawing 4] [drawing 5] [drawing 6] [drawing 7]

[2] = system: drug-resistant breast cancer cells MDA435/LCC6-MDR; assay: cytostatic activity in combination with paclitaxel (SRB cell growth inhibition); type: cell-based; conditions: IC50 of paclitaxel in presence or absence of compound (reversing agent 1 μM), 72 h
Procedure: Following a five minute incubation at room temperature, plates were rinsed 5 times with 0.1% acetic acid and air dried. Bound dye was solubilized with 10 mM Tris Base (pH 10.5) for 5 min on a gyratory shaker.

Row | SMILES | IC50 at 72 h [1] [nM] | IC50 [2] [nM]
1 | CC(C)=CCOc1ccc2c(C)cc(=O)oc2c1C(=O)C=Cc1cccnc1 | > 1000 | 
2 | CC(=O)O[C@H]1C(=O)[C@@]2(C)[C@H]([C@H](OC(=O)c3ccccc3)[C@]3(O)C[C@H](OC(=O)[C@H](O)[C@@H](NC(=O)c4ccccc4)c4ccccc4)C(C)=C1C3(C)C)[C@]1(OC(C)=O)CO[C@@H]1C[C@@H]2O [Paclitaxel] |  | 426
3 | C=C(C)COc1ccc2c(C)cc(=O)oc2c1C(=O)C=Cc1cccnc1 [VIB 122, 1-[4-Methyl-7-(2-methylallyloxy)coumarin8-yl]-3-(pyridine-3-yl)propen-1-one] | > 1000 | 
